Test system: MV-4-11 cells
Test: Gene expression microarray analysis (Affymetrix PrimeView) and GSEA
Type: cell-based, human
Set-up: RFU PODN (11730768_x_at) / Fold change /veh PODN (11730768_x_at) / RFU LINC00158 (11744669_a_at) / Fold change /veh LINC00158 (11744669_a_at) / RFU DUSP10 (11751237_a_at) / Fold change /veh DUSP10 (11751237_a_at) / RFU ID3 (11757404_x_at) / Fold change /veh ID3 (11757404_x_at) / RFU PLEKHG5 (11737974_s_at) / Fold change /veh PLEKHG5 (11737974_s_at) / RFU LRRC4B (11730491_at) / Fold change /veh LRRC4B (11730491_at) / RFU GIMAP4 (11747438_a_at) / Fold change /veh GIMAP4 (11747438_a_at) / RFU KRT8 (11758183_x_at) / Fold change /veh KRT8 (11758183_x_at) / RFU CNN1 (11734310_a_at) / Fold change /veh CNN1 (11734310_a_at) / RFU VPS37D (11726825_at) / Fold change /veh VPS37D (11726825_at) / RFU C10orf10 (11716522_x_at) / Fold change /veh C10orf10 (11716522_x_at) / RFU KIR2DL2 /// KIR2DL4 /// KIR2DL5A /// KIR2DL5B /// KIR2DS1 /// KIR2DS2 /// KIR2DS3 /// KIR2DS4 /// KIR3DL3 /// KIR3DL3 /// KIR3DS1 (11738374_at) / Fold change /veh KIR2DL2 /// KIR2DL4 /// KIR2DL5A /// KIR2DL5B /// KIR2DS1 /// KIR2DS2 /// KIR2DS3 /// KIR2DS4 /// KIR3DL3 /// KIR3DL3 /// KIR3DS1 (11738374_at) / RFU C1QL1 (11718748_at) / Fold change /veh C1QL1 (11718748_at) / RFU TMPRSS4 (11747572_a_at) / Fold change /veh TMPRSS4 (11747572_a_at) / RFU HAMP (11756126_x_at) / Fold change /veh HAMP (11756126_x_at) / RFU RNFT2 (11725882_a_at) / Fold change /veh RNFT2 (11725882_a_at) / RFU NR4A2 (11747474_a_at) / Fold change /veh NR4A2 (11747474_a_at) / RFU ABCC12 (11746883_a_at) / Fold change /veh ABCC12 (11746883_a_at) / RFU TMEM136 (11760407_x_at) / Fold change /veh TMEM136 (11760407_x_at) / RFU CLDN22 /// WWC2 (11732394_at) / Fold change /veh CLDN22 /// WWC2 (11732394_at) / RFU HLA-DPB1 (11760878_x_at) / Fold change /veh HLA-DPB1 (11760878_x_at) / RFU SPINT1 (11716480_a_at) / Fold change /veh SPINT1 (11716480_a_at) / RFU GAP43 (11754022_s_at) / Fold change /veh GAP43 (11754022_s_at) / RFU A4GNT (11735810_at) / Fold change /veh A4GNT (11735810_at) / RFU PRB3 (11715151_x_at) / Fold change /veh PRB3 (11715151_x_at) / RFU TUBB4B (11761932_at) / Fold change /veh TUBB4B (11761932_at) / RFU CAPN14 (11732068_a_at) / Fold change /veh CAPN14 (11732068_a_at) / RFU TMCC2 (11721928_a_at) / Fold change /veh TMCC2 (11721928_a_at) / RFU IRGQ (11745062_a_at) / Fold change /veh IRGQ (11745062_a_at) / RFU FAM174B (11720279_a_at) / Fold change /veh FAM174B (11720279_a_at) / RFU TMPRSS4 (11748680_a_at) / Fold change /veh TMPRSS4 (11748680_a_at) / RFU FAM212B (11763350_a_at) / Fold change /veh FAM212B (11763350_a_at) / RFU PLEKHG5 (11743358_a_at) / Fold change /veh PLEKHG5 (11743358_a_at) / RFU ZSCAN30 (11745921_a_at) / Fold change /veh ZSCAN30 (11745921_a_at) / RFU CMKLR1 (11741424_a_at) / Fold change /veh CMKLR1 (11741424_a_at) / RFU LOC101060620 /// MAPK8IP1 (11723275_at) / Fold change /veh LOC101060620 /// MAPK8IP1 (11723275_at) / RFU SPTSSB (11747773_x_at) / Fold change /veh SPTSSB (11747773_x_at) / RFU PRSS12 (11739890_at) / Fold change /veh PRSS12 (11739890_at) / RFU BIN1 (11741810_x_at) / Fold change /veh BIN1 (11741810_x_at) / RFU WNT11 (11732464_a_at) / Fold change /veh WNT11 (11732464_a_at) / RFU C10orf10 (11716521_a_at) / Fold change /veh C10orf10 (11716521_a_at) / RFU C5orf56 (11738089_at) / Fold change /veh C5orf56 (11738089_at) / RFU CYB561 (11721691_x_at) / Fold change /veh CYB561 (11721691_x_at) / RFU ANKRD19P (11752326_a_at) / Fold change /veh ANKRD19P (11752326_a_at) / RFU OR2T12 /// OR2T33 /// OR2T8 (11738714_s_at) / Fold change /veh OR2T12 /// OR2T33 /// OR2T8 (11738714_s_at) / RFU VCAN (11748164_a_at) / Fold change /veh VCAN (11748164_a_at) / RFU JSRP1 (11732532_at) / Fold change /veh JSRP1 (11732532_at) / RFU KRTAP10-11 (11738290_x_at) / Fold change /veh KRTAP10-11 (11738290_x_at) / RFU MYO3A (11730013_a_at) / Fold change /veh MYO3A (11730013_a_at) / RFU EBF3 (11725865_a_at) / Fold change /veh EBF3 (11725865_a_at) / RFU CAMK2N1 (11719241_x_at) / Fold change /veh CAMK2N1 (11719241_x_at) / RFU C5orf56 (11738088_a_at) / Fold change /veh C5orf56 (11738088_a_at) / RFU OLFML3 (11715873_a_at) / Fold change /veh OLFML3 (11715873_a_at) / RFU LOC100653217 /// NTM (11731650_a_at) / Fold change /veh LOC100653217 /// NTM (11731650_a_at) / RFU MAPK11 (11762145_a_at) / Fold change /veh MAPK11 (11762145_a_at) / RFU FIZ1 (11724087_x_at) / Fold change /veh FIZ1 (11724087_x_at) / RFU OASL (11726364_x_at) / Fold change /veh OASL (11726364_x_at) / RFU SOX15 (11748057_x_at) / Fold change /veh SOX15 (11748057_x_at) / RFU CD79A (11719716_a_at) / Fold change /veh CD79A (11719716_a_at) / RFU HIST1H1D (11736915_at) / Fold change /veh HIST1H1D (11736915_at) / RFU CASKIN2 (11723855_a_at) / Fold change /veh CASKIN2 (11723855_a_at) / RFU LOC730098 (11760151_x_at) / Fold change /veh LOC730098 (11760151_x_at) / RFU OR4N2 (11742367_at) / Fold change /veh OR4N2 (11742367_at) / RFU PRRT2 (11749266_a_at) / Fold change /veh PRRT2 (11749266_a_at) / RFU SNX32 (11753110_a_at) / Fold change /veh SNX32 (11753110_a_at) / RFU CDHR5 (11726645_a_at) / Fold change /veh CDHR5 (11726645_a_at) / RFU RCAN1 (11760418_a_at) / Fold change /veh RCAN1 (11760418_a_at) / RFU FAM167A (11723789_a_at) / Fold change /veh FAM167A (11723789_a_at) / RFU FAM26E (11764081_at) / Fold change /veh FAM26E (11764081_at) / RFU ISYNA1 (11749810_s_at) / Fold change /veh ISYNA1 (11749810_s_at) / RFU ACY1 (11761880_at) / Fold change /veh ACY1 (11761880_at) / RFU 11764098_at / Fold change /veh 11764098_at / RFU SAMD14 (11745864_x_at) / Fold change /veh SAMD14 (11745864_x_at) / RFU NPB (11741838_a_at) / Fold change /veh NPB (11741838_a_at) / RFU TMPRSS6 (11731388_a_at) / Fold change /veh TMPRSS6 (11731388_a_at) / RFU KRTAP10-2 (11738614_at) / Fold change /veh KRTAP10-2 (11738614_at) / RFU ARHGAP8 /// PRR5-ARHGAP8 (11727945_x_at) / Fold change /veh ARHGAP8 /// PRR5-ARHGAP8 (11727945_x_at) / RFU KRTAP5-7 /// NADSYN1 (11734609_at) / Fold change /veh KRTAP5-7 /// NADSYN1 (11734609_at) / RFU RASL12 (11751679_a_at) / Fold change /veh RASL12 (11751679_a_at) / RFU CDKN2B (11736163_a_at) / Fold change /veh CDKN2B (11736163_a_at) / RFU PRF1 (11729649_at) / Fold change /veh PRF1 (11729649_at) / RFU, ZNF638 /// ZNF638-IT1 / Fold change vs veh, ZNF638 /// ZNF638-IT1 / RFU, PANK3 / Fold change vs veh, PANK3 / RFU, SH3YL1 / Fold change vs veh, SH3YL1 / RFU, ZEB2 / Fold change vs veh, ZEB2 / RFU, NRIP1 / Fold change vs veh, NRIP1 / RFU, PTTG1IP / Fold change vs veh, PTTG1IP / RFU, CAPN2 / Fold change vs veh, CAPN2 / RFU, MED14 / Fold change vs veh, MED14 / RFU, SNORA58 / Fold change vs veh, SNORA58 / RFU, C1orf63 / Fold change vs veh, C1orf63 / RFU, LRRFIP1 / Fold change vs veh, LRRFIP1 / RFU, NDUFAF7 / Fold change vs veh, NDUFAF7 / RFU, SLC12A2 / Fold change vs veh, SLC12A2 / RFU, IBTK / Fold change vs veh, IBTK / RFU, ESF1 / Fold change vs veh, ESF1 / Fold change vs veh, TMEM50B / RFU, TAOK1 / Fold change vs veh, TAOK1 / RFU, ACBD3 / Fold change vs veh, ACBD3 / RFU, TMA16 / Fold change vs veh, TMA16 / RFU, RWDD3 / Fold change vs veh, RWDD3 / RFU, BCAT1 / Fold change vs veh, BCAT1 / RFU, EDEM3 / Fold change vs veh, EDEM3 / RFU, TMEM33 / Fold change vs veh, TMEM33 / RFU, WDR75 / Fold change vs veh, WDR75 / RFU, AHCTF1 / Fold change vs veh, AHCTF1 / RFU, TFRC / Fold change vs veh, TFRC / RFU, ZDHHC17 / Fold change vs veh, ZDHHC17 / RFU, NOM1 / Fold change vs veh, NOM1 / RFU, ARL8B / Fold change vs veh, ARL8B / RFU, ZBTB11 / Fold change vs veh, ZBTB11 / RFU, TAMM41 / Fold change vs veh, TAMM41 / RFU, KIAA1704 /// LOC100996395 / Fold change vs veh, KIAA1704 /// LOC100996395 / RFU, ING1 / Fold change vs veh, ING1 / RFU, TRMT61B / Fold change vs veh, TRMT61B / RFU, FUBP3 / Fold change vs veh, FUBP3 / RFU, TP53 / Fold change vs veh, TP53 / RFU, TNKS2 / Fold change vs veh, TNKS2 / RFU, ZFP14 / Fold change vs veh, ZFP14 / RFU, ACTR2 / Fold change vs veh, ACTR2 / RFU, PPP3R1 / Fold change vs veh, PPP3R1 / RFU, PIK3R1 / Fold change vs veh, PIK3R1 / RFU, HNRNPA1 / Fold change vs veh, HNRNPA1 / RFU, RNF170 / Fold change vs veh, RNF170 / RFU, ZNF28 / Fold change vs veh, ZNF28 / RFU, RNGTT / Fold change vs veh, RNGTT / RFU, OGT / Fold change vs veh, OGT / RFU, BRD1 / Fold change vs veh, BRD1 / RFU, MARS / Fold change vs veh, MARS / RFU, ZNF655 / Fold change vs veh, ZNF655 / RFU, FAHD1 / Fold change vs veh, FAHD1 / RFU, BDP1 / Fold change vs veh, BDP1 / RFU, LRRCC1 / Fold change vs veh, LRRCC1 / RFU, ARID1A / Fold change vs veh, ARID1A / RFU, ZNF146 / Fold change vs veh, ZNF146 / RFU, ZNF330 / Fold change vs veh, ZNF330 / RFU, GPN3 / Fold change vs veh, GPN3 / RFU, C9orf123 / Fold change vs veh, C9orf123 / RFU, N4BP2L2 / Fold change vs veh, N4BP2L2 / RFU, ARFIP1 / Fold change vs veh, ARFIP1 / RFU, FAM179B / Fold change vs veh, FAM179B / RFU, BCL10 / Fold change vs veh, BCL10 / RFU, UHRF1BP1L / Fold change vs veh, UHRF1BP1L / RFU, BET1 / Fold change vs veh, BET1 / RFU, CNOT2 / Fold change vs veh, CNOT2 / RFU, ZNF268 / Fold change vs veh, ZNF268 / Fold change vs veh, ZNF507 / RFU, DGCR2 / Fold change vs veh, DGCR2 / RFU, WDSUB1 / Fold change vs veh, WDSUB1 / Fold change vs veh, HSP90B1 /// MIR3652 / RFU, ADSS / Fold change vs veh, ADSS / RFU, GK / Fold change vs veh, GK / RFU, ZNF148 / Fold change vs veh, ZNF148 / RFU, TAF9 / Fold change vs veh, TAF9 / RFU, SLC1A5 / Fold change vs veh, SLC1A5 / RFU, SLMO2 / Fold change vs veh, SLMO2 / RFU, ABCC4 / Fold change vs veh, ABCC4 / RFU, LOC101060439 /// RAP1B / Fold change vs veh, LOC101060439 /// RAP1B / RFU, RFX7 / Fold change vs veh, RFX7 / RFU, GTPBP10 / Fold change vs veh, GTPBP10 / RFU, CNEP1R1 / Fold change vs veh, CNEP1R1 / RFU, BIVM-ERCC5 /// ERCC5 / Fold change vs veh, BIVM-ERCC5 /// ERCC5 / RFU, ILF3 / Fold change vs veh, ILF3 / RFU 11762660_at / Fold change /veh 11762660_at / RFU VCAN (11757783_s_at) / Fold change /veh VCAN (11757783_s_at) / RFU DDX43 (11728927_at) / Fold change /veh DDX43 (11728927_at) / RFU KRT8 (11758188_x_at) / Fold change /veh KRT8 (11758188_x_at) / RFU NKD1 (11759106_at) / Fold change /veh NKD1 (11759106_at) / RFU SRD5A1 (11742802_a_at) / Fold change /veh SRD5A1 (11742802_a_at) / RFU TPSAB1 /// TPSB2 (11721975_s_at) / Fold change /veh TPSAB1 /// TPSB2 (11721975_s_at) / RFU GSTM3 (11746129_a_at) / Fold change /veh GSTM3 (11746129_a_at) / RFU IL23R (11737362_x_at) / Fold change /veh IL23R (11737362_x_at) / RFU TMEM51 (11727254_a_at) / Fold change /veh TMEM51 (11727254_a_at) / RFU PIWIL2 (11732686_x_at) / Fold change /veh PIWIL2 (11732686_x_at) / RFU ORM1 (11744905_x_at) / Fold change /veh ORM1 (11744905_x_at) / RFU CCDC152 (11743942_at) / Fold change /veh CCDC152 (11743942_at) / RFU ECM1 (11717891_a_at) / Fold change /veh ECM1 (11717891_a_at) / RFU IL23R (11748794_a_at) / Fold change /veh IL23R (11748794_a_at) / RFU TNFAIP8L3 (11732012_x_at) / Fold change /veh TNFAIP8L3 (11732012_x_at) / RFU MBOAT4 (11741988_at) / Fold change /veh MBOAT4 (11741988_at) / RFU 11764193_at / Fold change /veh 11764193_at / RFU TMEM53 (11763286_at) / Fold change /veh TMEM53 (11763286_at) / RFU MAGEB2 (11727129_at) / Fold change /veh MAGEB2 (11727129_at) / RFU TMEM200A (11744735_a_at) / Fold change /veh TMEM200A (11744735_a_at) / RFU CCDC152 (11751479_a_at) / Fold change /veh CCDC152 (11751479_a_at) / RFU FAM211A (11726209_a_at) / Fold change /veh FAM211A (11726209_a_at) / RFU RGS16 (11746705_a_at) / Fold change /veh RGS16 (11746705_a_at) / RFU VCAN (11755009_s_at) / Fold change /veh VCAN (11755009_s_at) / RFU RHOB (11743442_s_at) / Fold change /veh RHOB (11743442_s_at) / RFU RGS16 (11720943_a_at) / Fold change /veh RGS16 (11720943_a_at) / RFU RGS16 (11720944_at) / Fold change /veh RGS16 (11720944_at) / RFU, VPS4B / Fold change vs veh, VPS4B / RFU, CREB1 / Fold change vs veh, CREB1 / RFU, DNAJC13 / Fold change vs veh, DNAJC13 / RFU, GNAQ / Fold change vs veh, GNAQ / RFU, CDK5R1 / Fold change vs veh, CDK5R1 / RFU, ZRANB3 / Fold change vs veh, ZRANB3 / RFU, CUL4A / Fold change vs veh, CUL4A / RFU, CCNY / Fold change vs veh, CCNY / RFU, UFL1 / Fold change vs veh, UFL1 / RFU, COG3 / Fold change vs veh, COG3 / RFU, DIAPH2 / Fold change vs veh, DIAPH2 / RFU, SKA2 / Fold change vs veh, SKA2 / RFU, AFF3 / Fold change vs veh, AFF3 / RFU, LMF1 / Fold change vs veh, LMF1 / RFU, IPO11 / Fold change vs veh, IPO11 / RFU, DFFB / Fold change vs veh, DFFB / RFU, FOXP1 / Fold change vs veh, FOXP1 / RFU, CARD8 / Fold change vs veh, CARD8 / RFU, STRN3 / Fold change vs veh, STRN3 / RFU, ADK / Fold change vs veh, ADK / RFU, RASSF2 / Fold change vs veh, RASSF2 / RFU, WIPF1 / Fold change vs veh, WIPF1 / RFU, LARP1B / Fold change vs veh, LARP1B / RFU, RASA1 / Fold change vs veh, RASA1 / RFU, RB1 / Fold change vs veh, RB1 / RFU, PPFIA1 / Fold change vs veh, PPFIA1 / RFU, MAT2A / Fold change vs veh, MAT2A / RFU, CCT5 / Fold change vs veh, CCT5 / RFU, WDR92 / Fold change vs veh, WDR92 / RFU, CUX1 / Fold change vs veh, CUX1 / RFU, TTC7A / Fold change vs veh, TTC7A / RFU, TMEM135 / Fold change vs veh, TMEM135 / RFU, DEPTOR / Fold change vs veh, DEPTOR / RFU, CPM / Fold change vs veh, CPM / RFU, DNAJB6 / Fold change vs veh, DNAJB6 / RFU, CACNA2D3 / Fold change vs veh, CACNA2D3 / RFU, DTX4 / Fold change vs veh, DTX4 / RFU, TFCP2 / Fold change vs veh, TFCP2 / RFU, GMCL1 /// GMCL1P1 / Fold change vs veh, GMCL1 /// GMCL1P1 / RFU, AEBP2 / Fold change vs veh, AEBP2 / RFU, SNHG1 /// SNORD22 /// SNORD25 /// SNORD26 /// SNORD27 /// SNORD28 /// SNORD29 /// SNORD31 / Fold change vs veh, SNHG1 /// SNORD22 /// SNORD25 /// SNORD26 /// SNORD27 /// SNORD28 /// SNORD29 /// SNORD31 / Fold change (Aza/veh), C12orf56 (ProbeSet 11735607_a_at) / Fold change (ACY-1035/veh), C12orf56 (ProbeSet 11735607_a_at) / Fold change (Aza/veh), FGFR1OP (ProbeSet 11751329_s_at) / Fold change (ACY-1035/veh), FGFR1OP (ProbeSet 11751329_s_at) / Fold change (Aza/veh), VPS36 (ProbeSet 11739960_a_at) / Fold change (ACY-1035/veh), VPS36 (ProbeSet 11739960_a_at) / RFU SYPL1 (11715823_x_at) / Fold change /veh SYPL1 (11715823_x_at) / RFU IGFBP7 (11715501_s_at) / Fold change /veh IGFBP7 (11715501_s_at) / RFU REEP3 (11722064_at) / Fold change /veh REEP3 (11722064_at) / RFU IGLL1 (11728026_x_at) / Fold change /veh IGLL1 (11728026_x_at): dose or concentration left out as unconfirmed
Settings: MV-4-11 cells, 48 hours

Nc1ncn([C@@H]2O[C@H](CO)[C@@H](O)[C@H]2O)c(=O)n1 [azacitidine]
RFU OR4N2 (11742367_at): 68.76 RFU

— paper PMC5218480 (PLoS ONE, 2017)
